Target: T1, Ba/F3 cell EGFR Exon20 ins NPH (Homo sapiens, UniProt P00533, INS773NPH)
T1 construct: expressed in transfected cells; host or cells: Ba/F3
Assay: Ba/F3 cell proliferation suppression, EGFR Exon20 ins NPH
Format: cell-based
Settings: GI50 class; Ba/F3 cell line with NPH inserted at Exon20 of EGFR; 72 hours
Method in brief: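 Cells were seeded 24 h before dosing and then treated for 72 hours with compound at final concentrations of 0.3 nM to 50 um. Live cells were measured by CellTiter-Glo luminescence, and GI50 values were derived from growth ratio relative to control across three repeats.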

Compound | Ba/F3 (NPH) Activity
C=CC(=O)Nc1cc(Nc2cc(N3OCC[C@@H]3c3cc(F)ccc3F)ncn2)c(OC)cc1N1CC[C@H](N(C)C)C1 [compound 301, N-(5-((6-((R)-3-(2,5-difluorophenyl)isoxazolidine-2-yl)pyrimidine-4-yl)amino)-2-((S)-3-(dimethylamino)pyrolidine-1-yl)-4-methoxyphenyl) acrylamide] | A (GI50 < 50 nM)
C=CC(=O)Nc1cc(Nc2cc(N3OCC[C@@H]3c3cc(F)ccc3F)ncn2)c(OC)cc1N1CCC(N2C[C@H]3C[C@@H]2CO3)CC1 [Example 259, N-(2-(4-((1R,4R)-2-oxa-5-azabicyclo[2.2.1]heptane-5-yl)piperidine-1-yl)-5-((6-((R)-3-(2,5-difluorophenyl)isoxazolidine-2-yl)pyrimidine-4-yl)amino)-4-methoxyphenyl) acrylamide] | A (GI50 < 50 nM)
C=CC(=O)Nc1cc(Nc2cc(N3OCC[C@@H]3Cc3cccc(F)c3)ncn2)c(OC)cc1N1CCC(N2C[C@H]3CC[C@@H](C2)N3C2CC2)CC1 [compound 995, N-(2-(4-((1R,5S)-8-cyclopropyl-3,8-diazabicyclo [3.2.1]octan-3-yl)piperidine-1-yl)-5-((6-((S)-3-(3-fluorobenzyl)isoxazolidine-2-yl)pyrimidine-4-yl)amino)-4-methoxyphenyl) acrylamide] | A (GI50 < 50 nM)
C=CC(=O)Nc1cc(Nc2cc(N3OCC[C@@H]3c3ccc(Cl)c(F)c3)ncn2)c(OC)cc1N1CCC(N2CCN(C(C)=O)CC2)CC1 [compound 796, N-(2-(4-(4-acetylpiperazine-1-yl)piperidine-1-yl)-5-((6-((R)-3-(4-chloro-3-fluorophenyl)isoxazolidine-2-yl)pyrimidine-4-yl)amino)-4-methoxyphenyl) acrylamide] | A (GI50 < 50 nM)
C=CC(=O)Nc1cc(Nc2cc(N3OCC[C@@H]3c3cccc(Cl)c3Cl)ncn2)c(OC)cc1N1CCC(N2CCN(CC3CC3)CC2)CC1 [Example 204, N-(2-(4-(4-(cyclopropylmethyl)piperazine-1-yl)piperidine-1-yl)-5-((6-((R)-3-(2,3-dichlorophenyl)isoxazolidine-2-yl)pyrimidine-4-yl)amino)-4-methoxyphenyl) acrylamide] | A (GI50 < 50 nM)
C=CC(=O)Nc1cc(Nc2cc(N3OCC[C@H]3c3c(F)cccc3F)ncn2)c(OC)cc1N1CCC(N2CCN(CC)CC2)CC1 [compound 312, N-(5-((6-((S)-3-(2,6-difluorophenyl)isoxazolidine-2-yl)pyrimidine-4-yl)amino)-2-(4-(4-ethylpiperazine-1-yl)piperidine-1-yl)-4-methoxyphenyl) acrylamide] | C (500 nM ≤ GI50 < 5000 nM)
C=CC(=O)Nc1cc(Nc2cc(N3OCC[C@@H]3c3ccc(Cl)c(Cl)c3F)ncn2)c(OC)cc1N1CCC(N2CCN(C3CCC3)CC2)CC1 [Example 74, N-(2-(4-(4-cyclobutylpiperazine-1-yl)piperidine-1-yl)-5-((6-((R)-3-(3,4-dichloro-2-fluorophenyl)isoxazolidine-2-yl)pyrimidine-4-yl)amino)-4-methoxyphenyl) acrylamide] | B (50 nM ≤ GI50 < 500 nM)
C=CC(=O)Nc1cc(Nc2cc(N3OCC[C@@H]3c3ccc(Cl)c(Cl)c3)ncn2)c(OC)cc1N1CCN(CCN(C)C)CC1 [compound 686, N-(5-((6-((R)-3-(3,4-dichlorophenyl)isoxazolidine-2-yl)pyrimidine-4-yl)amino)-2-(4-(2-(dimethylamino)ethyl)piperazine-1-yl)-4-methoxyphenyl) acrylamide] | B (50 nM ≤ GI50 < 500 nM)
C=CC(=O)Nc1cc(Nc2cc(N3OCC[C@@H]3c3cccc(C#N)c3)ncn2)c(OC)cc1N1CCC(N2CCN(CCC)CC2)CC1 [compound 432, N-(5-((6-((R)-3-(3-cyanophenyl)isoxazolidine-2-yl)pyrimidine-4-yl)amino)-4-methoxy-2-(4-(4-propylpiperazine-1-yl)piperidine-1-yl)phenyl) acrylamide] | A (GI50 < 50 nM)
C=CC(=O)Nc1cc(Nc2cc(N3OCC[C@@H]3c3ccc4ccccc4c3)ncn2)c(OC)cc1N1CCC(N2CCN(CC)CC2)CC1 [compound 515, N-(2-(4-(4-ethylpiperazine-1-yl)piperidine-1-yl)-4-methoxy-5-((6-((R)-3-(naphthalene-2-yl)isoxazolidine-2-yl)pyrimidine-4-yl)amino)phenyl)acrylamide] | B (50 nM ≤ GI50 < 500 nM)
C=CC(=O)Nc1cc(Nc2cc(N3OCC[C@@H]3c3ccc(Cl)cc3)ncn2)c(OC)cc1N1CCC(N2CCC(N(C)C)CC2)CC1 [compound 808, N-(5-((6-((R)-3-(4-chlorophenyl)isoxazolidine-2-yl)pyrimidine-4-yl)amino)-2-(4-(dimethylamino)-[1,4'-bipiperidine]-1'-yl)-4-methoxyphenyl) acrylamide] | B (50 nM ≤ GI50 < 500 nM)
C=CC(=O)Nc1cc(Nc2cc(N3OCC[C@]3(C)c3ccccc3)ncn2)c(OC)cc1N1CCC(N2C[C@H]3C[C@@H]2CO3)CC1 [Example 270, N-(2-(4-((1R,4R)-2-oxa-5-azabicyclo[2.2.1]heptane-5-yl)piperidine-1-yl)-4-methoxy-5-((6-((R)-3-methyl-3-phenylisoxazolidine-2-yl)pyrimidine-4-yl)amino)phenyl) acrylamide] | B (50 nM ≤ GI50 < 500 nM)
C=CC(=O)Nc1cc(Nc2cc(N3OCC[C@@H]3c3cccc(Cl)c3Cl)ncn2)c(OC)cc1N1CCN(C2COC2)CC1 [compound 520, N-(5-((6-((R)-3-(2,3-dichlorophenyl)isoxazolidine-2-yl)pyrimidine-4-yl)amino)-4-methoxy-2-(4-(oxetane-3-yl)piperazine-1-yl)phenyl) acrylamide] | A (GI50 < 50 nM)
C=CC(=O)Nc1cc(Nc2cc(N3OCC[C@@H]3Cc3cccc(F)c3C)ncn2)c(OC)cc1N1CCC(N2C[C@@H]3C[C@H]2CO3)CC1 [compound 1040, N-(2-(4-((1S,4S)-2-oxa-5-azabicyclo [2.2.1]heptane-5-yl)piperidine-1-yl)-5-((6-((S)-3-(3-fluoro-2-methylbenzyl)isoxazolidine-2-yl)pyrimidine-4-yl)amino)-4-methoxyphenyl) acrylamide] | A (GI50 < 50 nM)
C=CC(=O)Nc1cc(Nc2cc(N3OCC[C@@H]3c3cccc4ccccc34)ncn2)c(OC)cc1N1CC[C@@H](N(C)C)C1 [compound 443, N-(2-((R)-3-(dimethylamino)pyrolidine-1-yl)-4-methoxy-5-((6-((R)-3-(naphthalene-1-yl)isoxazolidine-2-yl)pyrimidine-4-yl)amino)phenyl) acrylamide] | A (GI50 < 50 nM)
C=CC(=O)Nc1cc(Nc2cc(N3OCC[C@@H]3c3ccc(F)cc3F)ncn2)c(OC)cc1N1CCN(C2CC2)[C@@H](C)C1 [compound 479, N-(2-((S)-4-cyclopropyl-3-methylpiperazine-1-yl)-5-((6-((R)-3-(2,4-difluorophenyl)isoxazolidine-2-yl)pyrimidine-4-yl)amino)-4-methoxyphenyl) acrylamide] | A (GI50 < 50 nM)
C=CC(=O)Nc1cc(Nc2cc(N3OCC[C@@H]3c3cccc(Cl)c3)ncn2)c(OC)cc1N1CCC(N2CCN(C(C)=O)CC2)CC1 [compound 471, N-(2-(4-(4-acetylpiperazine-1-yl)piperidine-1-yl)-5-((6-((R)-3-(3-chlorophenyl)isoxazolidine-2-yl)pyrimidine-4-yl)amino)-4-methoxyphenyl) acrylamide] | A (GI50 < 50 nM)
C=CC(=O)Nc1cc(Nc2cc(N3OCC[C@@H]3c3cccc(Cl)c3Cl)ncn2)c(OC)cc1N1CCN(C(C)C)CC1 [compound 475, N-(5-((6-((R)-3-(2,3-dichlorophenyl)isoxazolidine-2-yl)pyrimidine-4-yl)amino)-2-(4-isopropylpiperazine-1-yl)-4-methoxyphenyl) acrylamide] | A (GI50 < 50 nM)
C#Cc1cccc([C@H]2CCON2c2cc(Nc3cc(NC(=O)C=C)c(N4CCC(N5CCN(CC)CC5)CC4)cc3OC)ncn2)c1 [compound 652, N-(2-(4-(4-ethylpiperazine-1-yl)piperidine-1-yl)-5-((6-((R)-3-(3-ethynylphenyl)isoxazolidine-2-yl)pyrimidine-4-yl)amino)-4-methoxyphenyl) acrylamide] | B (50 nM ≤ GI50 < 500 nM)
C=CC(=O)Nc1cc(Nc2cc(N3OCC[C@@H]3c3ccc(Cl)c(F)c3)ncn2)c(OC)cc1N(C)CCOC [compound 853, N-(5-((6-((R)-3-(4-chloro-3-fluorophenyl)isoxazolidine-2-yl)pyrimidine-4-yl)amino)-4-methoxy-2-((2-methoxyethyl)(methyl)amino)phenyl) acrylamide] | B (50 nM ≤ GI50 < 500 nM)
C=CC(=O)Nc1cc(Nc2cc(N3OCC[C@@H]3c3ccc(F)cc3F)ncn2)c(OC)cc1N(C)CCN(C)C [compound 350, N-(5-((6-((R)-3-(2,4-difluorophenyl)isoxazolidine-2-yl)pyrimidine-4-yl)amino)-2-((2-(dimethylamino)ethyl)(methyl)amino)-4-methoxyphenyl) acrylamide] | A (GI50 < 50 nM)
C=CC(=O)Nc1cc(Nc2cc(N3OCC[C@@H]3c3cccc(C#N)c3)ncn2)c(OC)cc1N(C)CCN(C)C [compound 392, N-(5-((6-((R)-3-(3-cyanophenyl)isoxazolidine-2-yl)pyrimidine-4-yl)amino)-2-((2-(dimethylamino)ethyl)(methyl)amino)-4-methoxyphenyl) acrylamide] | A (GI50 < 50 nM)
C=CC(=O)Nc1cc(Nc2cc(N3OCC[C@@H]3c3cc(F)ccc3F)ncn2)c(OC)cc1N1CCC(N2CCN(C3CC3)CC2)CC1 [Example 61, N-(2-(4-(4-cyclopropylpiperazine-1-yl)piperidine-1-yl)-5-((6-((R)-3-(2,5-difluorophenyl)isoxazolidine-2-yl)pyrimidine-4-yl)amino)-4-methoxyphenyl) acrylamide;] | A (GI50 < 50 nM)
